In ChEMBL document CHEMBL1201862, “PubChem BioAssay data set” (2004) one finds IC50, CC50 and AC50 data, which are given here for 8 molecules.

Structures are written as SMILES. “And” between values parts separate entries of the source, which are not always exact repeats. Equal entries are not always repeated. The source made the active and inactive calls.

Test [1] concerns the target T1, Sentrin-specific protease 8 (Homo sapiens, UniProt Q96LD8).
T1 sequence (Q96LD8 whole entry): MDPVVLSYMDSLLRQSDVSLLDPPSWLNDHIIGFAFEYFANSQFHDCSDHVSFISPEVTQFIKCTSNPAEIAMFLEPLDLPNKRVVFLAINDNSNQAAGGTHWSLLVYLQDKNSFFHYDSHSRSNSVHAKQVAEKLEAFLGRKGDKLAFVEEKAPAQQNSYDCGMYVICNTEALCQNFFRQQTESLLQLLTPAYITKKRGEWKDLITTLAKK
Briefly: SENP8 protease inhibitors, SAR follow-up, biochemical, luminescence (AID 504501). It counts as functional.

For test [2], the target named is T2, Caspase-3 (Homo sapiens, UniProt P42574).
T2 sequence (P42574 whole entry): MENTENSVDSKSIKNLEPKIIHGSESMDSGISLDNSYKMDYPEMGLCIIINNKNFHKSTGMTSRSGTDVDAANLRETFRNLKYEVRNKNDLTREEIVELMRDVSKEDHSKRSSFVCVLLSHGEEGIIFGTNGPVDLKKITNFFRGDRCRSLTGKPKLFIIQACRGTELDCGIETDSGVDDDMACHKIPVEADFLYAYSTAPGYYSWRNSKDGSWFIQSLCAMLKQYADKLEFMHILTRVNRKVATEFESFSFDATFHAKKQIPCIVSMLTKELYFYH
Briefly: SAR Analysis of small molecule inhibitors of Sentrin-specific proteases (SENPs) using a Caspase-3 Selectivity assay. [Related pubchem assays (depositor defined):AID2540, AID2599, AID434973, AID489001]. It counts as functional.

The target of test [3] is T3, Sentrin-specific protease 6 (Homo sapiens, UniProt Q9GZR1).
T3 sequence (Q9GZR1 whole entry): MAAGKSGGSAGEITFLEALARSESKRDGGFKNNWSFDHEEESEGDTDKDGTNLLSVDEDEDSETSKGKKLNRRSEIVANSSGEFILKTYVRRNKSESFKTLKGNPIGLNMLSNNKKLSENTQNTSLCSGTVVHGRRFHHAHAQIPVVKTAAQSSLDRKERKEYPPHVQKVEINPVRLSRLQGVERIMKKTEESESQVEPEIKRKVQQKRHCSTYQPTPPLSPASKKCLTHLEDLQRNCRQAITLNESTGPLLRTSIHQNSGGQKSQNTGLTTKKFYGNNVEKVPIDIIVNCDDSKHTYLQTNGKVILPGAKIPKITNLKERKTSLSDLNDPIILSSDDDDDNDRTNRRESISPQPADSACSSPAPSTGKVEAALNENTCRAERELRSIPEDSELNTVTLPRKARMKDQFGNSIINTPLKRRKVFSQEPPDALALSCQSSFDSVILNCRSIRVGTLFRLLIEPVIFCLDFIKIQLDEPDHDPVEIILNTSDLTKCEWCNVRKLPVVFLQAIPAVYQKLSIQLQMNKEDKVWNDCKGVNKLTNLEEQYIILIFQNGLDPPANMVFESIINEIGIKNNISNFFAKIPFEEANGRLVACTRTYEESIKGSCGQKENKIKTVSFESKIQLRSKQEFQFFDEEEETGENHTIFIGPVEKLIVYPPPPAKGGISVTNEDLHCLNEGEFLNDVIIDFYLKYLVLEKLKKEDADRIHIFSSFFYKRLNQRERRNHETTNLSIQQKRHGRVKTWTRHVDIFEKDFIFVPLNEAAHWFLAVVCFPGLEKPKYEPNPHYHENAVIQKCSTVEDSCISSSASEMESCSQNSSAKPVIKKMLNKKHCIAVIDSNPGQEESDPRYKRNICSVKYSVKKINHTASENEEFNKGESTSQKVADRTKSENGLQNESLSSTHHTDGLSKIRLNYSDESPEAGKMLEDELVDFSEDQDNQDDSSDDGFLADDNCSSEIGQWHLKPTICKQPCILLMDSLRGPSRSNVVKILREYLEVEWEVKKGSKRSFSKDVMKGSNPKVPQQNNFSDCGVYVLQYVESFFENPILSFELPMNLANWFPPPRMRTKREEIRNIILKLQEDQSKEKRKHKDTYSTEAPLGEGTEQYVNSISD
Briefly: SAR Analysis of small molecule inhibitors of Sentrin-specific protease 6 (SENP6) using a Luminescent assay. [Related pubchem assays (depositor defined):AID2582, AID2599]. In kind it is functional.

The target of test [4] is T4, Sentrin-specific protease 7 (Homo sapiens, UniProt Q9BQF6).
T4 sequence (Q9BQF6 whole entry): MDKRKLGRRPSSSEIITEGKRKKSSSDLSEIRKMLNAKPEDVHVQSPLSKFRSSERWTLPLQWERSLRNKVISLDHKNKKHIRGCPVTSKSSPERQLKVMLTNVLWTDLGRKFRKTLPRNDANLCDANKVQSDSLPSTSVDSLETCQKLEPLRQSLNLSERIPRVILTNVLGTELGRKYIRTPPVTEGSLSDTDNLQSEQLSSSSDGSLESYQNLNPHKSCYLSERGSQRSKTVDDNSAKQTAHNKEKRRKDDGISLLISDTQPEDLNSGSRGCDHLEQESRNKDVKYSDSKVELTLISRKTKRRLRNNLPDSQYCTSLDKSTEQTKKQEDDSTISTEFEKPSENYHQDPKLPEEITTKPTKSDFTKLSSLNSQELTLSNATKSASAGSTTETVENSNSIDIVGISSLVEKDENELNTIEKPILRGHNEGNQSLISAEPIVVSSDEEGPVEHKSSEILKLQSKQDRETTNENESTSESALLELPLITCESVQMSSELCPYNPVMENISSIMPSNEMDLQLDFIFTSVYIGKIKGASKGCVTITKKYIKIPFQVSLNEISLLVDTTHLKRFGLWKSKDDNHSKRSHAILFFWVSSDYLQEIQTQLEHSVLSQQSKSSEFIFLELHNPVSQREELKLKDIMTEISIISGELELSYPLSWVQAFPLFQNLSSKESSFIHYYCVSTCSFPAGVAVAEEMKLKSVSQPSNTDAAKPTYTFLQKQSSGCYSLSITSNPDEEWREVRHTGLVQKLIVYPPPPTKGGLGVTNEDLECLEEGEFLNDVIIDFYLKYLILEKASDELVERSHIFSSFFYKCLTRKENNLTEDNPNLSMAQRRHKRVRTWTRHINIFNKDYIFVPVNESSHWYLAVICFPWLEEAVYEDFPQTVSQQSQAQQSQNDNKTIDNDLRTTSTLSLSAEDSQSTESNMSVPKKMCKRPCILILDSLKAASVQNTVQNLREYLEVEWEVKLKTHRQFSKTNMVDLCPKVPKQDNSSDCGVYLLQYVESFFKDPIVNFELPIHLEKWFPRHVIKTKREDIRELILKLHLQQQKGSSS
Briefly: SENP7 protease inhibitors, SAR follow-up, biochemical, luminescence (AID 504497). It counts as functional.

Test [5] addresses Melanin-concentrating hormone receptor 1 (Homo sapiens, UniProt Q99705). Briefly: Late-stage fluorescence-based counterscreen for antagonists of the G-protein coupled receptor 7 (GPR7): cell-based dose response assay to identify antagonists of the melanin-concentrating hormone receptor 1 (MCHR1) Set 6. It counts as functional.
In test [6] the target is T5, Neuropeptides B/W receptor type 1 (Homo sapiens, UniProt P48145).
T5 sequence (P48145 whole entry): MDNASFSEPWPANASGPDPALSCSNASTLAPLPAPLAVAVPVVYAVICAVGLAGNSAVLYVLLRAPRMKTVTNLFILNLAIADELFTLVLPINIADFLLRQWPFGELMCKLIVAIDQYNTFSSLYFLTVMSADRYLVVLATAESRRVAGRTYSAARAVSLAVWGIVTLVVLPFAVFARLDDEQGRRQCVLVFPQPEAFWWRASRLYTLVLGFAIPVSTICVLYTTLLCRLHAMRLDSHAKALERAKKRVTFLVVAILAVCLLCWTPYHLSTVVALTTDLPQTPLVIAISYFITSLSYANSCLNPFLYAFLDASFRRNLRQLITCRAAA
Briefly: GPR7 antagonist potency, late-stage follow-up, cell-based, fluorescence, dose response, set 6 (AID 588583). It counts as functional.

The test system of test [7] is H9c2. Briefly: cells. In kind it is functional, cell-based. As to conditions: Rattus norvegicus, H9c2, Myocardium.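 Further: confirmatory concentration-response retest of ultra-high-throughput screening hits for modulation of myocardial damage; cell death induced by hydrogen peroxide oxidative stress; compound pretreatment for 60 min then peroxide exposure for 2 h; potency is for protecting the cells against peroxide damage rather than for killing them.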
Test [8] has as its target Melanocortin receptor 4 (Homo sapiens, UniProt P32245). Briefly: MC4R antagonist potency on cAMP, dose response, cell-based, TR-FRET, biased antagonists (AID 602298).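 Further: antagonist potency against agonist-stimulated cAMP production.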 In kind it is functional.
Test [9] is described as follows: nonselective inhibitors of cellular cAMP signaling, dose response, counter-screen for MC4R biased antagonist project, cell-based, TR-FRET cAMP detection (AID 602305).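 Further: U2OS cells stimulated with forskolin near its EC80 as the cAMP inducer; potency is for inhibition of forskolin-stimulated cAMP signaling.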 It counts as functional.
Test [10] deals with T1, Sentrin-specific protease 8. Briefly: SENP8 protease inhibitors, SAR follow-up, biochemical, luminescence, set 2 (AID 588601). In kind it is functional.
The target in test [11] is T4, Sentrin-specific protease 7. Briefly: SENP7 protease inhibitors, SAR follow-up, biochemical, luminescence, set 2 (AID 588600). In kind it is functional.
Test [12] addresses T3, Sentrin-specific protease 6. Briefly: SENP6 protease inhibitors, SAR follow-up, biochemical, luminescence, set 2 (AID 588598). It counts as functional.
Test [13] in a line: HEp-2 cell cytotoxicity, dose response, cytotoxicity control for RSV inhibitor project, HTS (AID 2410). In kind it is functional. As to conditions: human respiratory syncytial virus.
Test [14] deals with Cytochrome P450 2D6 (Homo sapiens, UniProt P10635).
Chain of Cytochrome P450 2D6 (P10635 whole entry): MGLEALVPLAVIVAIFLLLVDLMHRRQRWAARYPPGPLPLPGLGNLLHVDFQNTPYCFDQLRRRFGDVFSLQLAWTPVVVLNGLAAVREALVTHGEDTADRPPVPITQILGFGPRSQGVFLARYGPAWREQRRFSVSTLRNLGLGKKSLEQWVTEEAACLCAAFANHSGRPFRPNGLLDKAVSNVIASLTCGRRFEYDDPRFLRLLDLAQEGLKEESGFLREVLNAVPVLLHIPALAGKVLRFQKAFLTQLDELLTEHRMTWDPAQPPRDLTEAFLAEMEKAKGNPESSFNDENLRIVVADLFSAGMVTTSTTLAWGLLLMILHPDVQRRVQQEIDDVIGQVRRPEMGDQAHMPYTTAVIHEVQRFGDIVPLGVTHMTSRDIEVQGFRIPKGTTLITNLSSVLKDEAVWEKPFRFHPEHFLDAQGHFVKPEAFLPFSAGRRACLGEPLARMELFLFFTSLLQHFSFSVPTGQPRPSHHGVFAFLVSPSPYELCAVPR
A short description of test [15]: cells.
For test [16], the target named is T6, Rac GTPase-activating protein 1 (Homo sapiens, UniProt Q9H0H5).
T6 sequence (Q9H0H5 whole entry): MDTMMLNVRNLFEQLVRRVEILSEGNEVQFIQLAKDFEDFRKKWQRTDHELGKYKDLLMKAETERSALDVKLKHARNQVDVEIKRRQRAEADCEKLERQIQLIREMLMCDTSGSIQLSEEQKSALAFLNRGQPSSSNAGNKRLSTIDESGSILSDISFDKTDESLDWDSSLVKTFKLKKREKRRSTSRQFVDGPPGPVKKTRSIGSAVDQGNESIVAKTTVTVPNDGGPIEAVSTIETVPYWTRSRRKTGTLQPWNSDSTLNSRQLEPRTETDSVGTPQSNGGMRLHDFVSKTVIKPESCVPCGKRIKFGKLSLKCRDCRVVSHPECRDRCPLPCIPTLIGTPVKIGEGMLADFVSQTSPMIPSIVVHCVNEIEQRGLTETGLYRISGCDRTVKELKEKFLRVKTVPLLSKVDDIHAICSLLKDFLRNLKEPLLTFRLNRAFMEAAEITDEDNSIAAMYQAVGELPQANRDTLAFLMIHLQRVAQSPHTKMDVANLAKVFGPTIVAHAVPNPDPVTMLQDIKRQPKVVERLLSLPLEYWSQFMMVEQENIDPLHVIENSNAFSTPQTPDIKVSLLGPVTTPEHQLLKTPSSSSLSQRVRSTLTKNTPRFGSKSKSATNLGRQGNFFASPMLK
Briefly: MgcRacGAP GTPase-activating activity inhibitors, confirmation, biochemical, ADP Hunter fluorescence, primary and confirmatory (AID 624330). In kind it is functional.
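Wherever AC50 is given: CYP2D6 member of a cytochrome P450 panel assay.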

Chain of Melanocortin receptor 4 (P32245 whole entry): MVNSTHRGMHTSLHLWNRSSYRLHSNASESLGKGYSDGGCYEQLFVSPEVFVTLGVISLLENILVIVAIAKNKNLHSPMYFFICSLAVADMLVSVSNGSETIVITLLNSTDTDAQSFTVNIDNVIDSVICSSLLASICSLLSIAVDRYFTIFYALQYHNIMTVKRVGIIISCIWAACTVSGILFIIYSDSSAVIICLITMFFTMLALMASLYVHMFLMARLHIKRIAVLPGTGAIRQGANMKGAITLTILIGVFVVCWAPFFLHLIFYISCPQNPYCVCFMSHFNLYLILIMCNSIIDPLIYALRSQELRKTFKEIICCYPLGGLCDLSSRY
Chain of Melanin-concentrating hormone receptor 1 (Q99705 whole entry): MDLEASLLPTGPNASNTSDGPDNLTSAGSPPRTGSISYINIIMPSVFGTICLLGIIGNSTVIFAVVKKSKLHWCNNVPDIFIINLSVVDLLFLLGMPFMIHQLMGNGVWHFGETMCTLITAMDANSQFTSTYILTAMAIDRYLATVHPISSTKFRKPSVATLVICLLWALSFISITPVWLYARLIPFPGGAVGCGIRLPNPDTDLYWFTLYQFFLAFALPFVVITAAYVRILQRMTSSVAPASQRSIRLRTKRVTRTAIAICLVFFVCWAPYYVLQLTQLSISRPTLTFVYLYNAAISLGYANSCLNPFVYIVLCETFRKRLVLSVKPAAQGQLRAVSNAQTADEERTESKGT

Regarding `O=C(Nc1ccc(-c2noc(/C=C/c3ccccc3)n2)cc1)c1ccc(Br)o1`, the IC50 in [1], in [2], in test [3] and in [4] was > 99 µM (inactive) throughout.
In the case of `N#Cc1cccc(C(C#N)c2c(Cl)cnn(Cc3cccc4ccccc34)c2=O)c1` (stereo not drawn), the IC50 in test [5] and in test [6] was 553 nM (active) in each case.
On to `CCN(C[C@H]1N[C@@](CC)(C(=O)OC)[C@H]2C(=O)N(Cc3ccccc3)C(=O)[C@@H]12)C(=O)c1ccc(C(C)(C)C)cc1`, for which the IC50 was > 79 µM (inactive) in test [7], > 64.6 µM (inactive) in [8] and > 64.6 µM (inactive) in test [9].
As for `CCCCc1ccc2nc(NC(=O)c3sccc3Cl)sc2c1`, the IC50 in test [1] is 0.99 µM (active); in test [10] it was 1.06 µM (active); in test [2] it was 1.1 µM (active); in test [11], 1.16 µM (active); in [3], 0.97 µM (active); in test [12] it was 1.15 µM (active). For the same molecule, in [4], the IC50 is 0.96 µM (active).
On to `COc1ccc(OC)c(C2C3=C(O)CCCC3=NC(C)=C2C(=O)Nc2nc3ccccc3s2)c1` (stereo not drawn), for which, in test [13], the cytotoxic concentration (CC50) is 23.1 µM (active). Besides, the IC50 was 12.6 µM (inactive) in test [8], > 64.6 µM (inactive) in [9] and 9.83 µM (active) in test [15]. Moreover, in test [14], the AC50 is 22.4 µM (inconclusive).
As to `CC(C)c1ccc(C(C#N)c2c(Cl)cnn(Cc3cccc4ccccc34)c2=O)cc1` (stereo not drawn), the IC50 in [5] is 253 nM (active) and 1.62 µM (active); in [6] it was 253 nM (active) and 1.62 µM (active).
Regarding `CCOC(=O)c1sc(S)nc1C`, the IC50 in test [8] was 18.2 µM (inactive); in [9] it was 44.7 µM (inactive); in test [16], 50 µM (active).
In the case of `CCn1ccc2ccc(Oc3c(Cl)cnn(Cc4cccc5ccccc45)c3=O)cc21`, the IC50 in test [5] and in test [6] was > 20000 nM (inactive) each time.
